pIC50: −log10 of the molar value.
Legend:
[1] = target: T1, cloned human glucagon receptor (Homo sapiens, UniProt P47871); assay: Glucagon Binding Assay (I); conditions: for pIC50: plasma membranes of BHK cells expressing the receptor, 125I-glucagon tracer, read-out: Glu Bd Assay (I) IC50
T1 construct: expressed in transfected cells; plasma membrane preparation
Procedure: Binding of compounds to the glucagon receptor was determined in a competition binding assay using the cloned human glucagon receptor.
Receptor binding was assayed using cloned human receptor (Lok et al., Gene 140, 203-209 (1994)). The receptor inserted in the pLJ6′ expression vector using EcoRI/SSt1 restriction sites (Lok et al.) was expressed in a baby hamster kidney cell line (A3 BHK 570-25).
Plasma membranes were prepared by growing cells to confluence, detaching them from the surface and resuspending the cells in cold buffer (10 mM tris/HCl, pH 7.4 containing 30 mM NaCl, 1 mM dithiothreitol, 5 mg/L leupeptin (Sigma), 5 mg/L pepstatin (Sigma), 100 mg/L bacitracin (Sigma) and 15 mg/L recombinant aprotinin (Novo Nordisk A/S)), homogenization by two 10-s bursts using a Polytron PT 10-35 homogenizer (Kinematica), and centrifugation upon a layer of 41 w/v % sucrose at 95.000×g for 75 min. The white band located between the two layers was diluted in buffer and centrifuged at 40.000×g for 45 min. The precipitate containing the plasma membranes was suspended in buffer and stored at −80° C. until use. Glucagon was iodinated according to the chloramine T method (Hunter and Greenwood, Nature 194, 495 (1962)) and purified using anion exchange chromatography (Jørgensen et al., Hormone and Metab. Res. 4, 223-224 (1972). The specific activity was 460 μCi/μg on the day of iodination. Tracer was stored at −18° C. in aliquots and were used immediately after thawing.
Binding assays were carried out in triplicate in filter microtiter plates (MADV N65, Millipore). The buffer used in this assay was 50 mM HEPES, 5 mM EGTA, 5 mM MgCl2, 0.005% tween 20, pH 7.4. Glucagon was dissolved in 0.05 M HCl, added an equal amount (w/w) of HSA and freeze-dried. On the day of use, it was dissolved in water and diluted in buffer to the desired concentrations.
Test compounds were dissolved and diluted in DMSO. 140 μL buffer, 25 μL glucagon or buffer, and 10 μL DMSO or test compound were added to each well. Tracer (50.000 cpm) was diluted in buffer and 25 μL were added to each well. 1-4 μg freshly thawed plasma membrane protein diluted in buffer was then added in aliquots of 25 μL to each well. Plates were incubated at 30° C. for 2 hours. Non-specific binding was determined with 10^−6 M of glucagon. Bound tracer and unbound tracer were then separated by vacuum filtration (Millipore vacuum manifold). The plates were washed with 2×100 μL buffer/well. The plates were air dried for a couple of hours, whereupon the filters were separated from the plates using a Millipore Puncher. The filters were counted in a gamma counter.

[2] = target: T2, human glucagon receptor (Homo sapiens, UniProt P47871); assay: Glucagon Binding Assay (III); conditions: Glu Bd Assay (III) IC50 (nM), BHK cell membranes, WGA SPA beads, 125I-glucagon
T2 construct: expressed in transfected cells; host or cells: BHK (baby hamster kidney) cells
Method in brief: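 Membranes from BHK cells transfected with the human receptor, prepared at 4 °C, were used in a WGA-bead scintillation proximity binding format. Plates were shaken for 4 hours, left to settle 8–48 hours and then counted. Non-specific binding was defined with 500 nM glucagon.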

T1 sequence (P47871 26-477): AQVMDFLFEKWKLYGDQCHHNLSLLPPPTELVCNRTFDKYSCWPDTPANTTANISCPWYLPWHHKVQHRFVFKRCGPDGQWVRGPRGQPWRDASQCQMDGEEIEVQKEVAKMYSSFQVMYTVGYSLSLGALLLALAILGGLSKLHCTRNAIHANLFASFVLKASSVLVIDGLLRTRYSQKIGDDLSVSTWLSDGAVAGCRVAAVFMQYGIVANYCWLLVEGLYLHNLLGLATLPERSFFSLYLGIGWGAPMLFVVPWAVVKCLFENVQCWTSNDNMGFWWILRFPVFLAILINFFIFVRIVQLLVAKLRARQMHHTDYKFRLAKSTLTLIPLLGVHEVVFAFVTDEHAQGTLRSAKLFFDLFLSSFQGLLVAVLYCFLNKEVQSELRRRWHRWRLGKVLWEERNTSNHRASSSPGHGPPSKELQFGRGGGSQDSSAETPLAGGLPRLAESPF
T2 sequence (P47871 26-477): as above

Glu Bd Assay (I) Effect, 100-Residual binding (%) at 1 μM [1] [%]	pIC50 [1]	SMILES	further results
30.4	6.07	CC(C)(C)c1ccc(CN(Cc2ccc(C(=O)NCCC(=O)O)cc2)C(=O)c2cc3ccccc3s2)cc1 [Example 7, 3-(4-{[N-(Benzo[b]thiophen-2-carbonyl)-N-(4-tert-butylbenzyl)amino]methyl}benzoylamino)propionic acid]	
28.5		CC(C)(C)C1CCC(N(Cc2ccc(C(=O)NCCC(=O)O)cc2)C(=O)c2cc3ccccc3s2)CC1 (stereo not shown) [Example 4, 3-(4-{[N-(Benzo[b]thiophen-2-carbonyl)-N-(4-tert-butylcyclohexyl)amino]methyl}benzoylamino)propionic acid]	
	5.89	COC(C)(C)C1CCC(N(Cc2ccc(C(=O)NCCC(=O)O)cc2)C(=O)Nc2ccc(OC(F)(F)F)cc2)CC1 (stereo not shown)	
		O=C(O)CCNC(=O)c1cccc(CN(CC(c2ccccc2)c2ccccc2)C(=O)c2csc3ccc(Cl)cc23)c1 [Example 9, 3-(3-{[N-(5-Chlorobenzo[b]thiophene-3-carbonyl)-N-(2,2-diphenylethyl)amino]methyl}benzoylamino)propionic acid]	Glu Bd Assay (I) Effect, 100-Residual binding (%) ([1]; at 500 nM): 56.4% (at 500
31.1	6.10	CCCCC(CC)CN(Cc1ccc(C(=O)NCCC(=O)O)cc1)C(=O)/C=C/c1c(Cl)cccc1Cl (stereo not shown) [Example 5, 3-(4-{[N-[3-(2,6-Dichlorophenyl)acryloyl]-N-(2-ethylhexyl)amino]methyl}benzoylamino)propionic acid]	
	5.87	O=C(O)CCNC(=O)c1ccc(CN(C(=O)Nc2cc(Cl)cc(Cl)c2)C2CCC3(CC2)SCCS3)cc1	
37.8	6.17	O=C(O)CCNC(=O)c1ccc(CN(CCC(c2ccccc2)c2ccccc2)C(=O)c2ccc(Cl)cc2)cc1 [Example 8, 3-(4-{[N-(4-Chlorobenzoyl)-N-(3,3-diphenylpropyl)amino]methyl}benzoylamino)propionic acid]	
	6.92	O=C(O)CCNC(=O)c1ccc(CN(CC(c2ccccc2)c2ccccc2)C(=O)c2csc3ccc(Cl)cc23)cc1 [Example 1, 3-(4-{[N-(5-Chlorobenzo[b]thiophen-3-carbonyl)-N-(2,2-diphenylethyl)amino]methyl}benzoylamino)propionic acid]	
26.2		CC(C)(C)C1CCC(N(Cc2ccc(C(=O)NCCC(=O)O)cc2)C(=O)Cc2csc3ccccc23)CC1 (stereo not shown) [Example 3, 3-(4-{[N-(2-Benzo[b]thiophen-3-yl-acetyl)-N-(4-tert-butylcyclohexyl)amino]methyl}benzoylamino)propionic acid]	
29.5	5.92	CC(C)(C)c1ccc(CN(Cc2ccc(C(=O)NCCC(=O)O)cc2)C(=O)/C=C/c2c(Cl)cccc2Cl)cc1 [Example 6, 3-(4-{[N-[3-(2,6-Dichlorophenyl)acryloyl]-N-(4-tert-butylbenzyl)amino]methyl}benzoylamino)propionic acid]	
		CC(C)(C)[C@H]1CC[C@H](N(Cc2ccc(C(=O)NCCC(=O)O)cc2)C(=O)Nc2ccc(OC(F)(F)F)cc2)CC1 [Example 92, 3-{4-[1-(4-trans-tert-Butylcyclohexyl)-3-(4-trifluoromethoxyphenyl)ureidomethyl]benzoylamino}propionic acid]	melting point: 152 to 154 °C; IC50 [2]: 47 nM
	5.89	O=C(O)CCNC(=O)c1ccc(CN(CCc2ccc(Cl)c(Cl)c2)C(=O)c2csc3ccc(Cl)cc23)cc1 [Example 2, 3-(4-{[N-(5-Chlorobenzo[b]thiophen-3-carbonyl)-N-(3,4-dichlorophenylethyl)amino]methyl}benzoylamino)propionic acid]	
	7.57	CC(C)(C)C1CCC(N(Cc2ccc(C(=O)NCCC(=O)O)cc2)C(=O)Nc2ccc(OC(F)(F)F)cc2)CC1 (stereo not shown) [Example 11, 3-{4-[1-(4-tert-Butylcyclohexyl)-3-(4-trifluoromethoxyphenyl)ureidomethyl]benzoylamino}propionic acid]	
	7.11	CC(C)(C)C1CCC(N(Cc2ccc(C(=O)NCCC(=O)O)cc2)C(=O)Nc2cccc(C(F)(F)F)c2)CC1 (stereo not shown) [Example 13, 3-{4-[1-(4-tert-Butylcyclohexyl)-3-(3-trifluoromethylphenyl)ureidomethyl]benzoylamino}propionic acid]	
	5.57	O=C(O)CCNC(=O)c1ccc(CN(C(=O)Nc2ccc(OC(F)(F)F)cc2)C2CCCCC2)cc1	
	7.38	CCCCC(CC)CN(Cc1ccc(C(=O)NCCC(=O)O)cc1)C(=O)Nc1ccc(-c2ccccc2)cc1 (stereo not shown) [Example 10, 3-{4-[3-Biphenyl-4-yl-1-(2-ethylhexyl)ureidomethyl]benzoylamino}propionic acid]	
	7.70	CC(C)(C)C1CCC(N(Cc2ccc(C(=O)NCCC(=O)O)cc2)C(=O)Nc2ccc(-c3ccccc3)cc2)CC1 (stereo not shown) [Example 12, 3-{4-[3-Biphenyl-4-yl-1-(4-tert-butylcyclohexyl)ureidomethyl]benzoylamino}propionic acid]	
